Laboratory results published in patent US11077123B2 (priority 2016, dated 2021).

Tests used:
Clostridium perfringens = conditions: varying concentrations; cited from earlier work
[1] = test system: pESI conjugation between S. Infantis 119944 (donor) and E. coli ORN172 (recipient); experiment: pESI conjugation (mating) experiments on LB agar plates; assay type: cell-based, Salmonella enterica serovar Infantis; E. coli; conditions: pESI transfer, LB agar plates supplemented with 2% (w/v) of the substance
[2] = test system: S. Infantis and the E. coli strains; experiment: Bacterial viability / growth in the conjugation experiments; assay type: cell-based, Salmonella enterica serovar Infantis; E. coli; conditions: 2% of the substance

In the case of `C[C@H](CCC(=O)NCC(=O)O)[C@H]1CC[C@H]2[C@@H]3[C@H](O)C[C@@H]4C[C@H](O)CC[C@]4(C)[C@H]3CC[C@]12C` [glycine-conjugated chenodeoxycholic acid], the bacterial viability (Clostridium perfringens) is listed as “significantly reduced bacterial viability”.
For `C[C@H](CCC(=O)O)[C@H]1CC[C@H]2[C@@H]3CC[C@@H]4C[C@H](O)CC[C@]4(C)[C@H]3CC[C@]12C` [lithocholic acid, 3α-hydroxy-5β-cholan-24-oic acid], the conjugation frequency [1] was “significant decrease” and the “growth (rate) of S. Infantis and the E. coli strains” value (from here on “growth (rate)”) [2] was “no effect on the growth rate”.
For `C[C@H](CCC(=O)NCCS(=O)(=O)O)[C@H]1CC[C@H]2[C@@H]3[C@H](O)C[C@@H]4C[C@H](O)CC[C@]4(C)[C@H]3CC[C@]12C` [taurine-conjugated chenodeoxycholic acid], the bacterial viability (Clostridium perfringens) is given as “significantly reduced bacterial viability”.
With `C[C@H](CCC(=O)O)[C@H]1CC[C@H]2[C@@H]3[C@H](O)C[C@@H]4C[C@H](O)CC[C@]4(C)[C@H]3CC[C@]12C` [chenodeoxycholic acid] the conjugation frequency [1] was “transconjugants in the presence of these regents were not produced” and the “growth (rate)” value [2] was “inhibited the growth”.
For `NCCS(=O)(=O)O` [taurine, 2-aminoethanesulfonic acid], the conjugation frequency [1] was “inhibit conjugation to a lower degree” and the “growth (rate)” value [2] was “no effect on the growth rate”.
In the case of `NCC(=O)O` [glycine], the conjugation frequency [1] is reported as “transconjugants in the presence of these regents were not produced” and the “growth (rate)” value [2] is reported as “inhibited the growth”.
For `C[C@H](CCC(=O)O)[C@H]1CC[C@H]2[C@@H]3[C@H](O)C[C@@H]4C[C@H](O)CC[C@]4(C)[C@H]3C[C@H](O)[C@]12C` [cholic acid], the conjugation frequency [1] was “significant decrease”.
